# Laboratory results: ChEMBL document CHEMBL1149646, “2D Quantitative structure-activity relationship studies on a series of cholesteryl ester transfer protein inhibitors” (Bioorg Med Chem, 2007)
# Target: T1, Cholesteryl ester transfer protein (Homo sapiens, UniProt P11597)
# T1 sequence (P11597 whole entry): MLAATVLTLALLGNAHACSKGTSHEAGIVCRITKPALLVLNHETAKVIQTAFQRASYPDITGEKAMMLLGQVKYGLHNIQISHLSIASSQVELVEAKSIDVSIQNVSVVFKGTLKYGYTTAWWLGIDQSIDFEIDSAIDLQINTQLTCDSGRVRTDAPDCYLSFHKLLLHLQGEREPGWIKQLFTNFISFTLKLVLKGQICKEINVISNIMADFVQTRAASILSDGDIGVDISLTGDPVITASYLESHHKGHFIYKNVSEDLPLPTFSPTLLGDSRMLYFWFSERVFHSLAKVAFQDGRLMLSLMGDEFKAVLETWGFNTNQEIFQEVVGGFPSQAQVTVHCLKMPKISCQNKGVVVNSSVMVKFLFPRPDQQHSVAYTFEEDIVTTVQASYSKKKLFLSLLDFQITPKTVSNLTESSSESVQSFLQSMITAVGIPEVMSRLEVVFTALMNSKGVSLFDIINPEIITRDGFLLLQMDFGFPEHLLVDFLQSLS
# Test: Inhibition of CETP
row,Compound,IC50 [nM]
1,OC(CN(Cc1cccc(OC(F)(F)F)c1)c1cccc(Oc2ccccc2)c1)c1ccccc1 (centres undefined),50000
2,OC(CN(Cc1cccc(OC(F)(F)C(F)F)c1)c1cccc(Oc2ccc(F)c(F)c2)c1)C(F)(F)F (centres undefined),80
3,Cc1cc(C)cc(Oc2cccc(CN(CC(O)C(F)(F)F)c3cccc(Oc4ccccc4)c3)c2)c1 (centres undefined),70
4,OC(CN(Cc1cccc2c1OC(F)(F)C(F)(F)O2)c1cccc(Oc2ccccc2)c1)C(F)(F)F (centres undefined),12000
5,OC(CN(Cc1cccc(OC(F)(F)C(F)F)c1)c1cccc(OCc2ccccc2CC(F)(F)F)c1)C(F)(F)F (centres undefined),90
6,CCCCC(O)CN(Cc1cccc(OC(F)(F)F)c1)c1cccc(Oc2ccccc2)c1 (centres undefined),3600
7,OC(CN(Cc1cccc(OC(F)(F)C(F)F)c1)c1cccc(Oc2cccc(CC(F)(F)F)c2)c1)C(F)(F)F (centres undefined),30
8,CCCCc1ccc(Oc2cccc(N(Cc3cccc(OC(F)(F)C(F)F)c3)CC(O)C(F)(F)F)c2)cc1 (centres undefined),200
9,OC(CN(Cc1cccc(OC(F)(F)C(F)F)c1)c1cccc(OCc2ccccc2OC(F)(F)F)c1)C(F)(F)F (centres undefined),60
10,OC(CN(Cc1cccc(-c2cccc(C(F)(F)F)n2)c1)c1cccc(Oc2ccccc2)c1)C(F)(F)F (centres undefined),4080
11,Cc1cccc(-c2cccc(CN(CC(O)C(F)(F)F)c3cccc(Oc4ccccc4)c3)c2)n1 (centres undefined),15000
12,CC(C)(O)c1cccc(N(Cc2cccc(OC(F)(F)C(F)F)c2)CC(O)C(F)(F)F)c1 (centres undefined),7800
13,OC(CN(Cc1cccc(OC(F)(F)C(F)F)c1)c1cccc(-c2ccncc2)c1)C(F)(F)F (centres undefined),6240
14,CC(C)(C)c1cccc(Oc2cccc(N(Cc3cccc(OC(F)(F)C(F)F)c3)CC(O)C(F)(F)F)c2)c1 (centres undefined),100
